Test results as given in the supplement of paper PMC11061612.

Assays:
Prexasertib = compound: COc1cccc(OCCCN)c1-c1cc(Nc2cnc(C#N)cn2)n[nH]1 [Prexasertib]; details: max 1 µM
Procedure, shortened: (§1)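 Cancer cell lines were dosed for 72 hours (final DMSO typically 0.2%) after 24 hours at 37°C and 5% CO2 in 1536-well plates containing 7.5 μl DMEM/F12 or RPMI with 10% FBS. Viability came from CellTiter-Glo 2.0 luminescence, scaled between blank-well and DMSO-well means, and dose responses were fitted to a two-parameter logistic curve with a non-linear mixed effects model. The single-agent IC50 was obtained from this fit.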

Savolitinib = compound: C[C@@H](c1ccc2nccn2c1)n1nnc2ncc(-c3cnn(C)c3)nc21 [Savolitinib]; details: max 1 µM
Procedure, shortened: as §1

Gefitinib = compound: COc1cc2ncnc(Nc3ccc(F)c(Cl)c3)c2cc1OCCCN1CCOCC1 [Gefitinib]; details: max 10 µM
Procedure, shortened: as §1

MK-2206 = compound: NC1(c2ccc(-c3nc4ccn5c(=O)[nH]nc5c4cc3-c3ccccc3)cc2)CCC1 [MK-2206]; details: max 10 µM
Procedure, shortened: as §1

AZD7648 = compound: Cc1cc2ncnn2cc1Nc1ncc2c(n1)n(C1CCOCC1)c(=O)n2C [AZD7648]; details: max 10 µM
Procedure, shortened: as §1

Dasatinib = compound: CC1=C(C(=CC=C1)Cl)NC(=O)C2=CN=C(S2)NC3=CC(=NC(=N3)C)N4CCN(CC4)CCO [Dasatinib]; details: max 2 µM
Procedure, shortened: as §1

AZD5153 = compound: COc1nnc2ccc(N3CCC(c4ccc(OCCN5CCN(C)C(=O)[C@H]5C)cc4)CC3)nn12 [AZD5153]; details: max 1 µM
Procedure, shortened: as §1

AZD8186 = compound: C[C@@H](Nc1cc(F)cc(F)c1)c1cc(C(=O)N(C)C)cc2c(=O)cc(N3CCOCC3)oc12 [AZD8186]; details: max 10 µM
Procedure, shortened: as §1

Olaparib = compound: O=C(c1cc(Cc2n[nH]c(=O)c3ccccc23)ccc1F)N1CCN(C(=O)C2CC2)CC1 [Olaparib]; details: max 10 µM
Procedure, shortened: as §1

AZD4320 = compound: CN(CC[C@H](CSC1=CC=CC=C1)NC2=C(C=C(C=C2)S(=O)(=O)NC(=O)C3=CC=C(C=C3)N4CCC(CC4)[C@H](C5=CC=CC=C5C6=CC=C(C=C6)Cl)O)S(=O)(=O)C(F)(F)F)CCO [AZD4320]; details: max 1 µM
Procedure, shortened: as §1

Palbociclib = compound: CC(=O)c1c(C)c2cnc(Nc3ccc(N4CCNCC4)cn3)nc2n(C2CCCC2)c1=O [Palbociclib]; details: max 10 µM
Procedure, shortened: as §1

AZD1390 = compound: CC(C)n1c(=O)n(C)c2cnc3cc(F)c(-c4ccc(OCCCN5CCCCC5)nc4)cc3c21 [AZD1390]; details: max 0.3 µM
Procedure, shortened: as §1

Carboplatin = compound: C1CC(C1)(C(=O)[O-])C(=O)[O-].N.N.[Pt+2] [Carboplatin]; details: max 10 µM
Procedure, shortened: as §1

Lapatinib = compound: CS(=O)(=O)CCNCc1ccc(-c2ccc3ncnc(Nc4ccc(OCc5cccc(F)c5)c(Cl)c4)c3c2)o1 [Lapatinib]; details: max 10 µM
Procedure, shortened: as §1

Gemcitabine = compound: Nc1ccn([C@@H]2O[C@H](CO)[C@@H](O)C2(F)F)c(=O)n1 [Gemcitabine]; details: max 0.3 µM
Procedure, shortened: as §1

Doxorubicin = compound: COc1cccc2c1C(=O)c1c(O)c3c(c(O)c1C2=O)C[C@@](O)(C(=O)CO)C[C@@H]3O[C@H]1C[C@H](N)[C@H](O)[C@H](C)O1 [Doxorubicin]; details: max 1 µM
Procedure, shortened: as §1

Paclitaxel = compound: CC(=O)O[C@H]1C(=O)[C@@]2(C)[C@H]([C@H](OC(=O)c3ccccc3)[C@]3(O)C[C@H](OC(=O)[C@H](O)[C@@H](NC(=O)c4ccccc4)c4ccccc4)C(C)=C1C3(C)C)[C@]1(OC(C)=O)CO[C@@H]1C[C@@H]2O [Paclitaxel]; details: max 3 µM
Procedure, shortened: as §1

Alisertib = compound: COc1cc(Nc2ncc3c(n2)-c2ccc(Cl)cc2C(c2c(F)cccc2OC)=NC3)ccc1C(=O)O [Alisertib]; details: max 10 µM
Procedure, shortened: as §1

AZD0156 = compound: CN(C)CCCOc1ccc(-c2ccc3ncc4c(c3c2)n(C2CCOCC2)c(=O)n4C)cn1 [AZD0156]; details: max 3 µM
Procedure, shortened: as §1

AZD5363 = compound: C1CN(CCC1(C(=O)N[C@@H](CCO)C2=CC=C(C=C2)Cl)N)C3=NC=NC4=C3C=CN4 [AZD5363]; details: max 10 µM
Procedure, shortened: as §1

5-Fluorouracil = compound: O=c1[nH]cc(F)c(=O)[nH]1 [5-Fluorouracil]; details: max 20 µM
Procedure, shortened: as §1

AZD6738 = compound: C[C@@H]1COCCN1C2=NC(=NC(=C2)C3(CC3)[S@](=N)(=O)C)C4=C5C=CNC5=NC=C4 [AZD6738]; details: max 10 µM
Procedure, shortened: as §1

Trametinib = compound: CC(=O)Nc1cccc(-n2c(=O)n(C3CC3)c(=O)c3c(Nc4ccc(I)cc4F)n(C)c(=O)c(C)c32)c1 [Trametinib]; details: max 1 µM
Procedure, shortened: as §1

Taselisib = compound: Cc1nc(-c2cn3c(n2)-c2ccc(-c4cnn(C(C)(C)C(N)=O)c4)cc2OCC3)n(C(C)C)n1 [Taselisib]; details: max 10 µM
Procedure, shortened: as §1

AZD1775 = compound: C=CCn1c(=O)c2cnc(Nc3ccc(N4CCN(C)CC4)cc3)nc2n1-c1cccc(C(C)(C)O)n1 [AZD1775]; details: max 3 µM
Procedure, shortened: as §1

SN-38 = compound: CCc1c2c(nc3ccc(O)cc13)-c1cc3c(c(=O)n1C2)COC(=O)[C@]3(O)CC [SN-38]; details: max 0.3 µM
Procedure, shortened: as §1

SRA737 = compound: N#Cc1cnc(Nc2cc(NC[C@H]3CNCCO3)c(C(F)(F)F)cn2)cn1 [SRA737]; details: max 10 µM
Procedure, shortened: as §1

Crizotinib = compound: C[C@@H](Oc1cc(-c2cnn(C3CCNCC3)c2)cnc1N)c1c(Cl)ccc(F)c1Cl [Crizotinib]; details: max 10 µM
Procedure, shortened: as §1

[1] = compound: O=C(Nc1ccc2[nH]nc(-c3ccncc3)c2c1)[C@@H]1CCN(CC(=O)N2CCN(c3ccc(-c4ncccn4)cc3)CC2)C1; details: max 5 µM
Procedure, shortened: as §1

Venetoclax = compound: CC1(C)CCC(CN2CCN(c3ccc(C(=O)NS(=O)(=O)c4ccc(NCC5CCOCC5)c([N+](=O)[O-])c4)c(Oc4cnc5[nH]ccc5c4)c3)CC2)=C(c2ccc(Cl)cc2)C1 [Venetoclax]; details: max 1 µM
Procedure, shortened: as §1

Selumetinib = compound: Cn1cnc2c(F)c(Nc3ccc(Br)cc3Cl)c(C(=O)NOCCO)cc21 [Selumetinib]; details: max 10 µM
Procedure, shortened: as §1

AZD2811 = compound: CCN(CCO)CCCOc1ccc2c(Nc3cc(CC(=O)Nc4cccc(F)c4)[nH]n3)ncnc2c1 [AZD2811]; details: max 1 µM
Procedure, shortened: as §1

SG3199 = compound: CC1=CN2[C@@H](C1)C=NC3=CC(=C(C=C3C2=O)OC)OCCCCCOC4=C(C=C5C(=C4)N=C[C@@H]6CC(=CN6C5=O)C)OC [SG3199]; details: max 0.001 µM
Procedure, shortened: as §1

AZD5991 = compound: Cc1c2c(nn1C)CSCc1cc(n(C)n1)CSc1cc(c3ccccc3c1)OCCCc1c(C(=O)O)n(C)c3c-2c(Cl)ccc13 [AZD5991]; details: max 1 µM
Procedure, shortened: as §1

Etoposide = compound: COc1cc([C@@H]2c3cc4c(cc3[C@@H](O[C@@H]3O[C@@H]5CO[C@@H](C)O[C@H]5[C@H](O)[C@H]3O)[C@H]3COC(=O)[C@H]23)OCO4)cc(OC)c1O [Etoposide]; details: max 10 µM
Procedure, shortened: as §1

Cell Line	IC50, cell viability 72 h (Prexasertib) [nM]	IC50, cell viability 72 h (Savolitinib) [nM]	IC50, cell viability 72 h (Gefitinib) [nM]	IC50, cell viability 72 h (MK-2206) [nM]	IC50, cell viability 72 h (AZD7648) [nM]	IC50, cell viability 72 h (Dasatinib) [nM]	IC50, cell viability 72 h (AZD5153) [nM]	IC50, cell viability 72 h (AZD8186) [nM]	IC50, cell viability 72 h (Olaparib) [nM]	IC50, cell viability 72 h (AZD4320) [nM]	IC50, cell viability 72 h (Palbociclib) [nM]	IC50, cell viability 72 h (AZD1390) [nM]	IC50, cell viability 72 h (Carboplatin) [nM]	IC50, cell viability 72 h (Lapatinib) [nM]	IC50, cell viability 72 h (Gemcitabine) [nM]	IC50, cell viability 72 h (Doxorubicin) [nM]	IC50, cell viability 72 h (Paclitaxel) [nM]	IC50, cell viability 72 h (Alisertib) [nM]	IC50, cell viability 72 h (AZD0156) [nM]	IC50, cell viability 72 h (AZD5363) [nM]	IC50, cell viability 72 h (5-Fluorouracil) [nM]	IC50, cell viability 72 h (AZD6738) [nM]	IC50, cell viability 72 h (Trametinib) [nM]	IC50, cell viability 72 h (Taselisib) [nM]	IC50, cell viability 72 h (AZD1775) [nM]	IC50, cell viability 72 h (SN-38) [nM]	IC50, cell viability 72 h (SRA737) [nM]	IC50, cell viability 72 h (Crizotinib) [nM]	IC50, cell viability 72 h [1] [nM]	IC50, cell viability 72 h (Venetoclax) [nM]	IC50, cell viability 72 h (Selumetinib) [nM]	IC50, cell viability 72 h (AZD2811) [nM]	IC50, cell viability 72 h (SG3199) [nM]	IC50, cell viability 72 h (AZD5991) [nM]	IC50, cell viability 72 h (Etoposide) [nM]
PANC-02-03 (Pancreatic Carcinoma)	405	> 1000	> 10000	> 10000	> 10000	> 2000	494	> 10000	> 10000	> 1000	> 10000	> 300	> 10000	> 10000	> 300	> 1000	1670	> 10000	> 3000	> 10000	> 20000	> 10000	259	> 10000	1790	137	> 10000	> 10000	2930	> 1000	> 10000	> 1000	> 1	> 1000	> 10000
PC-14 (Lung Adenocarcinoma)	25.4	> 1000	127	> 10000	> 10000	129	> 1000	> 10000	> 10000	> 1000	> 10000	> 300	> 10000	1700	56.2	> 1000	8.94	2960	> 3000	> 10000	> 20000	2680	453	4700	407	104	3330	6020	> 5000	> 1000	> 10000	> 1000	> 1	> 1000	> 10000
RMG-I (Ovarian Carcinoma)	301	> 1000	> 10000	> 10000	> 10000	> 2000	647	> 10000	> 10000	593	> 10000	> 300	> 10000	> 10000	> 300	> 1000	> 3000	> 10000	> 3000	> 10000	> 20000	> 10000	> 1000	8320	> 3000	> 300	> 10000	> 10000	> 5000	> 1000	> 10000	> 1000	> 1	> 1000	> 10000
SK-MM-2 (Plasma Cell Myeloma)	119	> 1000	> 10000	> 10000	> 10000	> 2000	32.5	> 10000	> 10000	3.02	> 10000	> 300	> 10000	> 10000	> 300	> 1000	> 3000	1810	> 3000	> 10000	> 20000	> 10000	> 1000	> 10000	> 3000	76.4	> 10000	> 10000	> 5000	2.5	> 10000	> 1000	> 1	> 1000	> 10000
SW684 (Other Solid Carcinomas)	> 1000	> 1000	> 10000	> 10000	> 10000	> 2000	> 1000	> 10000	> 10000	> 1000	> 10000	> 300	> 10000	> 10000	> 300	> 1000	1430	> 10000	> 3000	> 10000	> 20000	> 10000	> 1000	3530	> 3000	> 300	> 10000	> 10000	> 5000	> 1000	> 10000	> 1000	> 1	> 1000	> 10000
